Source: patent publication US8772307B2, “Substituted spiro compounds and their use for producing pain-relief medicaments” (Gruenenthal GmbH, priority 2005, dated 2014)

What was measured:
vanilloid receptor (VR1) = molecular target: T1, vanilloid receptor (VR1) (Homo sapiens, UniProt Q8NER1); assay: Functional testing on vanilloid receptor (VR1): FLIPR Ca2+ inflow assay in CHO K1 cells stably transfected with the VR1 gene; type: cell-based; conditions: for inhibition at 10 µM: CHO-K1, inhibition compared to 10 μM CP (capsaicin); for activation at 10 µM: CHO-K1, stimulation compared to 10 μM CP (capsaicin)
T1 construct: expressed in transfected cells; host or cells: CHO K1 cells (ECACC), stably transfected
T1 sequence (Q8NER1 whole entry): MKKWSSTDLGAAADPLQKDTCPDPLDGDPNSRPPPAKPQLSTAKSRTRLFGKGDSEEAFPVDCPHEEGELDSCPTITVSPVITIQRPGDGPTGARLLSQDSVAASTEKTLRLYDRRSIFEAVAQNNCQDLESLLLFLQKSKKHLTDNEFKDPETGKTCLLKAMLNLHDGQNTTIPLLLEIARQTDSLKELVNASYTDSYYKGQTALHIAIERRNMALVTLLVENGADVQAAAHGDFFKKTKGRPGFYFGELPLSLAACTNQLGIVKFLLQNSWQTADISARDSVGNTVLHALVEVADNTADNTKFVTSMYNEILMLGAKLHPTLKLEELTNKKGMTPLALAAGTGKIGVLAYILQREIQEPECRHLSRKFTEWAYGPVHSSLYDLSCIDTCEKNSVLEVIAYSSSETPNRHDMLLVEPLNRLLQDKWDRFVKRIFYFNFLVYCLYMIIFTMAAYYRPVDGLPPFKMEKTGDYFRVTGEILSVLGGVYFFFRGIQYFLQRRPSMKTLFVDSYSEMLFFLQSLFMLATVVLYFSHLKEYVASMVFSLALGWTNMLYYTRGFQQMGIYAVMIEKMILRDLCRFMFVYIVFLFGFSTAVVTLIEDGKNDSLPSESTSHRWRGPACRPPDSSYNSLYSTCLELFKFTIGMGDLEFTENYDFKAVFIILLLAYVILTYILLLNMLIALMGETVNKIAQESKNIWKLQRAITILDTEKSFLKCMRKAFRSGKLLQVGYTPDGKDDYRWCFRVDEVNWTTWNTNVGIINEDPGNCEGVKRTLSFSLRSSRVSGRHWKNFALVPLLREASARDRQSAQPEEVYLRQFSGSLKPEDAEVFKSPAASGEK
Source text: II. Functional Testing Carried Out on the Vanilloid Receptor (VR1)
The agonistic or antagonistic effect of the substances to be tested can also be determined on the vanilloid receptor (VR1) using the following assay. According to this assay, the Ca^2+ inflow is quantified through the channel using a Ca^2+-sensitive dye (type Fluo-4, Molecular Probes Europe BV, Leiden, Netherlands) in a fluorescent imaging plate reader (FLIPR, Molecular Devices, Sunnyvale, USA).
Chinese hamster ovary cells (CHO K1 cells, European Collection of Cell Cultures (ECACC) United Kingdom) were stably transfected with the VR1 gene. For functional testing, these cells were plated out on poly-D-lysine-coated black 96 well plates having a clear base (BD Biosciences, Heidelberg, Germany) at a density of 25,000 cells/well. The cells were incubated overnight at 37° C. and 5% CO2 in a culture medium (Ham's F12 nutrient mixture, 10% by volume of FCS (foetal calf serum), 18 μg/ml L-proline). The next day the cells were incubated with Fluo-4 (Fluo-4 2 μM, 0.01% by volume of Pluronic F127, Molecular Probes in HBSS (Hank's buffered saline solution), Gibco Invitrogen GmbH, Karlsruhe, Germany) for 30 minutes at 37° C. Subsequently, the plates were washed 3 times with HBSS buffer and after further incubation for 15 minutes at room temperature used for Ca^2+ measurement in a FLIPR assay. The Ca^2+-dependent fluorescence was measured before and after the addition of the substances to be tested (λex wavelength=488 nm, λem=540 nm). Quantification was carried out by measuring the highest fluorescence intensity (FC, Fluorescence Counts) over time.
The FLIPR protocol consists of 2 substance additions. First the compounds to be tested (10 μM) were pipetted onto the cells and the Ca^2+ inflow was compared with the control (capsaicin 10 μM) (% activation based on the Ca^2+ signal after the addition of 10 μM capsaicin). After 5 minutes' incubation, 100 nM of capsaicin were administered and the Ca^2+ inflow was also determined.
Desensitising agonists and antagonists led to suppression of the Ca^2+ inflow. The % inhibition was calculated compared to the maximum achievable inhibition with 10 μM of capsaicin.

[1] = molecular target: T2, rat-species vanilloid receptor 1 (VR1/TRPV1) (Rattus norvegicus, UniProt O35433); assay: Functional testing on vanilloid receptor 1 (VR1/TRPV1): FLIPR Ca2+ inflow assay in rat dorsal root ganglia cells (% activation / % inhibition vs capsaicin); type: cell-based; conditions: for inhibition at 10 µM: inhibition compared to 10 μM CP (capsaicin); for activation at 10 µM: stimulation compared to 10 μM CP (capsaicin)
T2 construct: endogenous in cells; host or cells: primary cells dissociated from rat dorsal root ganglia (DRG)
T2 sequence (O35433 whole entry): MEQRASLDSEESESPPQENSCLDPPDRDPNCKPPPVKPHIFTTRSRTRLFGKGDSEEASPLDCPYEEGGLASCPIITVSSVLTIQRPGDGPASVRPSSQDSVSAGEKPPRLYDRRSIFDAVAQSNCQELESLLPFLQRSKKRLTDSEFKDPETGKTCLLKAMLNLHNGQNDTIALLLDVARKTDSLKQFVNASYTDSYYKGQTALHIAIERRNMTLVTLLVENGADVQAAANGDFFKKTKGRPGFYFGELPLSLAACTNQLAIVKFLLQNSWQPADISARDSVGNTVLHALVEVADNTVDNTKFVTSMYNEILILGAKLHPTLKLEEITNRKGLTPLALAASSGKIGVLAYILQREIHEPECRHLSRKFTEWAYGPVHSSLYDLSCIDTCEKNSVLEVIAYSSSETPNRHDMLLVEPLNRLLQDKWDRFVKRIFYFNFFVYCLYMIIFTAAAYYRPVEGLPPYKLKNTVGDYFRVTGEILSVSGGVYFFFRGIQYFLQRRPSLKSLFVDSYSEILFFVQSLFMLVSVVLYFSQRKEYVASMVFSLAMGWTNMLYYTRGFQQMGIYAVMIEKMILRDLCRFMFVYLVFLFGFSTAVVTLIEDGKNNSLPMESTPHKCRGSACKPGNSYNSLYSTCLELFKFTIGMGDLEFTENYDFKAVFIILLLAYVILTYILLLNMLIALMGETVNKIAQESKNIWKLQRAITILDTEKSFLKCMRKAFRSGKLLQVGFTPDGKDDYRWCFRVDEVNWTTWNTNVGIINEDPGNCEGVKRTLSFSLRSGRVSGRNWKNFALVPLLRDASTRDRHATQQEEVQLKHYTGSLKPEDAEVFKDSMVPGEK
Description: Preference may also be given to substituted spiro compounds according to the invention of general formula I which in a FLIPR assay in a concentration of 10 μM display inhibition of the Ca^2+ ion inflow in dorsal root ganglia of rats of at least 30%, preferably of at least 40%, particularly preferably of at least 50%, most particularly preferably of at least 70%, even more preferably of at least 90%, compared to the maximum achievable inhibition of the Ca^2+ ion inflow with capsaicin in a concentration of 10 μM.
In the FLIPR assay, the Ca^2+ inflow is quantified using a Ca^2+-sensitive dye (type Fluo-4, Molecular Probes Europe BV, Leiden, Netherlands) in a fluorescent imaging plate reader (FLIPR, Molecular Devices, Sunnyvale, USA), as described hereinafter.
I. Functional Testing Carried Out on the Vanilloid Receptor 1 (VR1/TRPV1 Receptor)
The agonistic or antagonistic effect of the substances to be tested can be determined on the rat-species vanilloid receptor 1 (VR1/TRPV1) using the following assay. According to this assay, the Ca^2+ inflow is quantified through the receptor channel using a Ca^2+-sensitive dye (type Fluo-4, Molecular Probes Europe BV, Leiden, Netherlands) in a fluorescent imaging plate reader (FLIPR, Molecular Devices, Sunnyvale, USA).
Complete medium: 50 mL HAMS F12 nutrient mixture (Gibco Invitrogen GmbH, Karlsruhe, Germany) with
10% by volume of FCS (foetal calf serum, Gibco Invitrogen GmbH, Karlsruhe, Germany, […]);
2 mM L-glutamine (Sigma, Munich, Germany);
1% by weight of AA solution (antibiotic/antimyotic solution, PAA, Pasching, Austria)
and 25 ng/ml NGF medium (2.5 S, Gibco Invitrogen GmbH, Karlsruhe, Germany)
Cell culture plate: Poly-D-lysine-coated, black 96 well plates having a clear base (96 well black/clear plate, BD Biosciences, Heidelberg, Germany) were additionally coated with laminin (Gibco Invitrogen GmbH, Karlsruhe, Germany), the laminin being diluted with PBS (Ca—Mg-free PBS, Gibco Invitrogen GmbH, Karlsruhe, Germany) to a concentration of 100 μg/mL. Aliquots having a laminin concentration of 100 μg/mL were removed and stored at −20° C. The aliquots were diluted with PBS in a ratio of 1:10 to 10 μg/mL laminin and in each case 50 μL of the solution were pipetted into a recess in the cell culture plate. The cell culture plates were incubated for at least two hours at 37° C., the excess solution was removed by suction-filtration and the recesses were each washed twice with PBS. The coated cell culture plates were stored with excess PBS which was not removed until just before the feeding of the cells.
Preparation of the Cells:
The vertebral column was removed from decapitated rats and placed immediately into cold HBSS buffer (Hank's buffered saline solution, Gibco Invitrogen GmbH, Karlsruhe, Germany), i.e. buffer located in an ice bath, mixed with 1% by volume (percent by volume) of an AA solution (antibiotic/antimyotic solution, PAA, Pasching, Austria). The vertebral column was cut longitudinally and removed together with fasciae from the vertebral canal. Subsequently, the dorsal root ganglia (DRG) were removed and again stored in cold HBSS buffer mixed with 1% by volume of an AA solution. The DRG, from which all blood remnants and spinal nerves had been removed, were transferred in each case to 500 μL of cold type 2 collagenase (PAA, Pasching, Austria) and incubated for 35 minutes at 37° C. After the addition of 2.5% by volume of trypsin (PAA, Pasching, Austria), incubation was continued for 10 minutes at 37° C. After complete incubation, the enzyme solution was carefully pipetted off and 500 μL of complete medium were added to each of the remaining DRG. The DRG were in each case suspended several times, drawn through cannulae No. 1, No. 12 and No. 16 using a syringe and transferred to a 50 mL Falcon tube which was filled up to 15 mL with complete medium. […]

[2] = capsaicin (CAP) stimulus, average

Row | SMILES | inhibition at 10 µM (vanilloid receptor (VR1)) | activation at 10 µM (vanilloid receptor (VR1)) | inhibition at 10 µM [1] | activation at 10 µM [1] | IC50 (vanilloid receptor (VR1); [2]) | IC50 [1, 2]
1 | COc1cccc(C2=NOC3(CCN(C(=O)Nc4ccc(C)cc4)CC3)C2)c1 [Compound 146, 3-(3-methoxyphenyl)-1-oxa-2,8-diazaspiro[4.5]dec-2-ene-8-carboxylic acid p-tolylamide] | 9.95% | 0.29% | 58% | -0.13% |  | 
2 | O=C(Nc1cccc(C(F)(F)F)c1)N1CCC2(CC1)CC(c1ccccc1)=NO2 [Compound 90, 3-phenyl-1-oxa-2,8-diazaspiro[4.5]dec-2-ene-8-carboxylic acid-(3-trifluoromethylphenyl)amide] | -7.62% | -0.15% | 55.9% | -0.47% |  | 
3 | CC(C)(C)c1ccc(NC(=O)N2CCC3(CC2)CC(c2ccc(C(F)(F)F)cc2)=NO3)cc1 [Compound 145, 3-(4-trifluoromethylphenyl)-1-oxa-2,8-diazaspiro[4.5]dec-2-ene-8-carboxylic acid-(4-tert-butylphenyl)amide] | 4.26% | 2.49% | 59.9% | -0.2% |  | 
4 | COc1cccc(C2=NOC3(CCN(C(=O)Nc4cccc(SC)c4)CC3)C2)c1 [Compound 59, 3-(3-methoxyphenyl)-1-oxa-2,8-diazaspiro[4.5]dec-2-ene-8-carboxylic acid-(3-methylsulphanylphenyl)amide] | 2.09% | 0.01% | 48.6% | 0.51% |  | 
5 | CSc1ccc(NC(=O)N2CCC3(CC2)CC(c2ccc(C)cc2)=NO3)cc1 [Compound 69, 3-p-tolyl-1-oxa-2,8-diazaspiro[4.5]dec-2-ene-8-carboxylic acid-(4-methylsulphanylphenyl)amide] | 7.01% | -0.32% | 87.2% | -0.47% |  | 
6 | CC(C)(C)c1ccc(NC(=O)N2CCC3(CC2)CC(c2ccc(C(C)(C)C)cc2)=NO3)cc1 [Compound 143, 3-(4-tert-butylphenyl)-1-oxa-2,8-diazaspiro[4.5]dec-2-ene-8-carboxylic acid-(4-tert-butylphenyl)amide] | -7.17% | 4.12% | 45.7% | -0.33% |  | 
7 | CC(C)c1ccc(NC(=O)N2CCC3(CC2)CC(c2ccccc2)=NO3)cc1 [Compound 78, 3-phenyl-1-oxa-2,8-diazaspiro[4.5]dec-2-ene-8-carboxylic acid-(4-isopropylphenyl)amide] | 11.8% | 0.11% | 95% | 0.02% |  | 

Next, values leading:

Row | inhibition at 10 µM (vanilloid receptor (VR1)) | activation at 10 µM (vanilloid receptor (VR1)) | inhibition at 10 µM [1] | activation at 10 µM [1] | IC50 (vanilloid receptor (VR1); [2]) | IC50 [1, 2] | SMILES
8 | 11% | 0.28% | 99% | 2.55% |  |  | O=C(Nc1ccc(OC(F)(F)F)cc1)N1CCC2(CC1)CC(c1ccccc1)=NO2 [Compound 245, 3-phenyl-1-oxa-2,8-diazaspiro[4.5]dec-2-ene-8-carboxylic acid-(4-trifluoromethoxyphenyl)amide]
9 | 66% | 0% | 83% | 0% |  |  | CC(C)(C)c1ccc(/C=C/C(=O)N2CCC3(CC2)CC(c2ccccc2)=NO3)c(Br)c1 [Compound 368, (E)-3-(2-bromo-4-tert-butylphenyl)-1-(3-phenyl-1-oxa-2,8-diazaspiro[4.5]dec-2-en-8-yl)prop-2-en-1-one]
10 | 17.5% | 0.06% | 47.4% | -0.43% |  |  | CCc1ccc(NC(=O)N2CCC3(CC2)CC(c2ccc(C(F)(F)F)cc2)=NO3)cc1 [Compound 167, 3-(4-trifluoromethylphenyl)-1-oxa-2,8-diazaspiro[4.5]dec-2-ene-8-carboxylic acid-(4-ethylphenyl)amide]
11 | -12% | 1% | 100% | 5% |  |  | CC(C)(C)c1ccc(NC(=O)N2CCC3(CC2)CC(c2ccc(F)cc2)=NO3)cc1 [Compound 349, N-(4-tert-butylphenyl)-3-(4-fluorophenyl)-1-oxa-2,8-diazaspiro[4.5]dec-2-ene-8-carboxamide]
12 | 53% | 0% | 60% | 0% | 1.55 µM | 0.479 µM | COc1cccc(C2=NOC3(CCN(C(=O)/C=C/c4ccc(C(F)(F)F)nc4N4CCOCC4)CC3)C2)c1 [Compound 342, (E)-1-(3-(3-methoxyphenyl)-1-oxa-2,8-diazaspiro[4.5]dec-2-en-8-yl)-3-(2-morpholino-6-(trifluoromethyl)pyridin-3-yl)prop-2-en-1-one]
13 | -2.13% | -0.04% | 72.9% | -0.43% |  |  | CCc1ccc(NC(=O)N2CCC3(CC2)CC(c2ccc(Cl)cc2)=NO3)cc1 [Compound 164, 3-(4-chlorophenyl)-1-oxa-2,8-diazaspiro[4.5]dec-2-ene-8-carboxylic acid-(4-ethylphenyl)amide]
14 | 12% | 1% | 99% | 35% |  |  | CC(C)(C)c1ccc(NC(=O)N2CCC3(CC(c4ccccc4)=NO3)C2)cc1 (centres unmarked) [Compound 371, N-(4-tert-butylphenyl)-3-phenyl-1-oxa-2,7-diazaspiro[4.4]non-2-ene-7-carboxamide]
15 | 63% | 0% | 98% | 0% |  |  | O=C(/C=C/c1ccc(C(F)(F)F)nc1N1CCCCC1)N1CCC2(CC1)CC(c1ccccc1)=NO2 [Compound 355, (E)-1-(3-phenyl-1-oxa-2,8-diazaspiro[4.5]dec-2-en-8-yl)-3-(2-(piperidin-1-yl)-6-(trifluoromethyl)pyridin-3-yl)prop-2-en-1-one]
